Values of other authors as cited in US8476227B2, “Methods of activating a melanocortin-4 receptor pathway in obese subjects” (Ethicon Endo-Surgery, Inc., priority 2010, dated 2013).

Conditions: rat models; background statement, no dose or regimen given

**Q.** For NDP-MSH, which body weight gain is on record?
**A.** attenuate

**Q.** What about the food intake of the same substance?
**A.** attenuate
